# Assay results from PMC6784244 (Toxins, 2019).
# Where “and” joins values, the source holds several entries; their conditions need not be identical. Equal entries are not always repeated.
# Columns and labels:
# [1] = system: Aspergillus flavus (DSMZ 1959); conditions: DSMZ 1959, pH 7
# [2] = system: Helicobacter pylori (ATCC 43504)
# [3] = system: HEK (human normal epidermal keratinocytes); conditions: 48 h
# [4] = system: Candida albicans (DSMZ 10697); conditions: DSMZ 10697, 24 h, pH 7
# [5] = system: Pseudomonas aeruginosa (ATCC CRM-9027)
# [6] = system: Bacillus subtilis (ATCC 6633)
# [7] = system: Fusarium graminearum (DSMZ 1095); conditions: DSMZ 1095, pH 7
# [8] = parameters: species or system B. subtilis; conditions: lipid monolayer on PBS pH 7.4, peptide 1 µM, extrapolated to delta pressure 0; -- = absence of interaction
# Protocol: (§1) Peptide–lipid interaction was evaluated using reconstituted lipid monolayer at the air–water interface as previously described. Pure prokaryotic and eukaryotic lipids used were: POPC (1-palmitoyl-2-oleoyl-glycero-3-phosphocholine), POPE (1-palmitoyl-2-oleoyl-sn-glycero-3-phosphoethanolamine), POPG (1-palmitoyl-2-oleoyl-sn-glycero-3-phospho-(1’-rac-glycerol), and cardiolipin, all from Avanti Polar Lipid (Alabama, USA). LTA (Lipoteichoic acid from B. subtilis) was obtained from Invivogen SAS (Toulouse, France). Pure lipids were reconstituted in chloroform:methanol (2:1, v:v) at 1 mg/mL and stored at −20 °C under nitrogen. The interaction and insertion of the ENN and BEA into lipids were evaluated through the measurement of their critical pressure of insertion as previously described. Briefly, lipids were spread using a 50 µL Hamilton’s syringe at the surface of 800 µL of sterile PBS creating a lipid monolayer at the air–water interface. Lipids were added until the surface pressure reached the desired value. After 5–10 min of incubation allowing evaporation of the solvent and stabilization of the initial surface pressure, 8 µL of ENN or BEA diluted in sterile PBS at 100 µM were injected into the 800 µL sub-phase of PBS under the lipid monolayer (pH 7.4, volume 800 µL) using a 10 µL Hamilton syringe giving a final concentration of peptides of 1 µM, preliminary experiments having shown that this concentration gave optimal insertion. The variation of the surface pressure caused by peptide injection was then continuously monitored using a fully automated microtensiometer (µTROUGH SX, Kibron Inc., Helsinki, Finland) until reaching equilibrium (maximal surface pressure increase being usually obtained after 15–25 min). The critical pressure of insertion of each peptide was determined by changing the initial pressure of lipid monolayer (from 10 and 30 mN/m) and measuring the variation of pressure caused by the insertion of the peptide. The critical pressure of insertion of each peptide in a particular lipid was determined graphically and calculated as the theoretical value of initial pressure of lipid monolayer not permissive to peptide insertion, i.e., causing a variation of pressure equal to 0 mN/m.
# [9] = system: Clostridium perfringens (ATCC 13124)
# [10] = lipid monolayer on PBS pH 7.4, peptide 1 µM, extrapolated to delta pressure 0; -- = absence of interaction
# Protocol: as §1
# [11] = system: Penicillium verrucosum (DSMZ 12639); conditions: DSMZ 12639, pH 7
# [12] = system: Acinetobacter baumannii (CIP 110431)
# [13] = system: C. perfringens; type: cell-based, Clostridium perfringens
# [14] = system: F. verticillioides (DSMZ 62264); conditions: DSMZ 62264, pH 7
# [15] = system: Stachybotrys chartarum (DSMZ 2144); conditions: DSMZ 2144, pH 7
# [16] = system: F. oxysporum (DSMZ 62316); conditions: DSMZ 62316, pH 7
# [17] = system: A. niger (ATCC 9142); conditions: ATCC 9142, pH 7
# [18] = system: Escherichia coli (ATCC 8739)
# [19] = system: Mycobacterium smegmatis (mc2155, ATCC 700084); conditions: mc2155, 72 h
# [20] = system: Staphylococcus aureus (ATCC CRM-6538P)
# [21] = lipid monolayer at air-water interface on PBS pH 7.4, peptide 1 µM, initial pressure 10-30 mN/m, extrapolated to delta pressure 0
# Protocol: as §1
# [22] = system: Vancomycin-resistant Enterococcus faecalis (DSMZ 13591)
SMILES,"MIC, A. flavus [1]","MIC, H. pylori [2]",IC50 [3],"MIC, C. albicans [4]","MIC, P. aeruginosa [5]","MIC, B. subtilis [6]","MIC, F. graminearum [7]","critical pressure of insertion, LTA [8]","critical pressure of insertion, POPG [10]","MIC, P. verrucosum [11]","MIC, A. baumannii [12]",membrane depolarization at 100 µM [13],membrane depolarization at four times their MIC [13],"MIC, F. verticillioides [14]","MIC, S. chartarum [15]","MIC, F. oxysporum [16]","MIC, A. niger [17]","MIC, E. coli [18]","MIC, M. smegmatis [19]","MIC, S. aureus [20]",further results
CC[C@H](C)[C@H]1C(=O)O[C@H](C(C)C)C(=O)N(C)[C@@H]([C@@H](C)CC)C(=O)O[C@H](C(C)C)C(=O)N(C)[C@@H]([C@@H](C)CC)C(=O)O[C@H](C(C)C)C(=O)N1C [ENN A],>100 µM,>100 µM,2000 ± 100 nM,1.5 µM,>100 µM,6.25 to 12.5 µM,25 µM,56.1 mN/m,44.75 mN/m,>100 µM,>100 µM,108.9 ± 7.3%,80.8 ± 3.2%,>100 µM,>100 µM,>100 µM,>100 µM,>100 µM,6.25 µM,6.25 to 12.5 µM,"MIC, C. perfringens [9]: 3.12 µM; critical pressure of insertion, POPC [21]: 40.28 mN/m; critical pressure of insertion, POPE [21]: 38.12 mN/m; MIC, E. faecalis [22]: 3.12 µM"
CC(C)[C@H]1C(=O)O[C@H](C(C)C)C(=O)N(C)[C@@H](C(C)C)C(=O)O[C@H](C(C)C)C(=O)N(C)[C@@H](C(C)C)C(=O)O[C@H](C(C)C)C(=O)N1C [ENN B],>100 µM,>100 µM,54200 ± 35300 nM,6.25 µM,>100 µM,>100 µM,>100 µM,38.9 mN/m,34.67 mN/m,>100 µM,>100 µM,44.9 ± 8.7%,44.2 ±1.8%,>100 µM,>100 µM,>100 µM,>100 µM,>100 µM,100 µM,>100 µM,"MIC, C. perfringens [9]: 12.5 µM; membrane depolarization at their MIC [13]: 36.4 ± 3.8% and 30–40%; critical pressure of insertion, POPC [21]: 32.92 mN/m; critical pressure of insertion, POPE [21]: 30.15 mN/m; MIC, E. faecalis [22]: >100 µM"
CC[C@H](C)[C@H]1C(=O)O[C@H](C(C)C)C(=O)N(C)[C@@H]([C@@H](C)CC)C(=O)O[C@H](C(C)C)C(=O)N(C)[C@@H](C(C)C)C(=O)O[C@H](C(C)C)C(=O)N1C [ENN A1],>100 µM,>100 µM,2300 ± 100 nM,1.5 µM,>100 µM,12.5 to 25 µM,50 µM,53.71 mN/m,41.10 mN/m,>100 µM,>100 µM,97.4 ± 5.3%,75.3 ± 2.0%,>100 µM,>100 µM,>100 µM,>100 µM,>100 µM,3.12 µM,12.5 to 25 µM,"critical pressure of insertion, POPC [21]: 38.06 mN/m; critical pressure of insertion, POPE [21]: 34.38 mN/m; MIC, E. faecalis [22]: 6.25 µM"
CC[C@H](C)[C@H]1C(=O)O[C@H](C(C)C)C(=O)N(C)[C@@H](C(C)C)C(=O)O[C@H](C(C)C)C(=O)N(C)[C@@H](C(C)C)C(=O)O[C@H](C(C)C)C(=O)N1C [ENN B1],>100 µM,>100 µM,3300 ± 500 nM,3.12 µM,>100 µM,25 to 50 µM,25 µM,43.62 mN/m,41.71 mN/m,>100 µM,>100 µM,97.6 ± 9.1%,68.0 ± 4.3%,>100 µM,>100 µM,>100 µM,>100 µM,>100 µM,6.25 µM,25 µM,"MIC, C. perfringens [9]: 6.25 µM; membrane depolarization at their MIC [13]: 47.4 ± 4.6% and 30–40%; critical pressure of insertion, POPC [21]: 36.19 mN/m; critical pressure of insertion, POPE [21]: 31.87 mN/m; MIC, E. faecalis [22]: 12.5 µM"
